# Measured values as given in patent US12599136B2, “Substituted isophthalic acid diamides and their use as herbicides” (Bayer Aktiengesellschaft, priority 2020, dated 2026).
# Experiments:
# Format in all cases: in vivo
# Cyperus esculentus [1] = experiment: Post-emergence herbicidal action against CYPES; details: 80 g/ha, visual assessment about 3 weeks after treatment
# Procedure, shortened: (§1)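 Greenhouse plants in sandy loam were sprayed at the one-leaf stage, 2 to 3 weeks after sowing, with WP or EC formulations as aqueous suspension or emulsion (600 to 800 l/ha water, 0.2% wetting agent). Visual damage was scored about 3 weeks later versus untreated controls, 0% = like control, 100% = dead.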
# Pharbitis purpurea [2] = experiment: Post-emergence herbicidal action against PHBPU; details: visual assessment about 3 weeks after treatment
# Procedure, shortened: as §1
# Lolium rigidum [3] = experiment: Post-emergence herbicidal action against LOLRI
# Procedure, shortened: as §1
# Matricaria inodora [4] = experiment: Pre-emergence herbicidal action against MATIN; details: visual score after 3 weeks vs untreated controls
# Procedure, shortened: (§2)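 Pre-emergence soil-surface spray of formulated compound (WP or EC; 600 to 800 l/ha; 0.2% wetting agent) over seeds sown in sandy loam. After 3 weeks under greenhouse conditions, damage is estimated visually in percent against untreated plants.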
# Setaria viridis [5] = experiment: Post-emergence herbicidal action against SETVI; details: visual assessment about 3 weeks after treatment
# Procedure, shortened: as §1
# Polygonum convolvulus [6] = experiment: Pre-emergence herbicidal action against POLCO; details: 320 g/ha
# Procedure, shortened: as §2
# Hordeum murinum [7] = experiment: Post-emergence herbicidal action against HORMU
# Procedure, shortened: as §1
# Alopecurus myosuroides [8] = experiment: Post-emergence herbicidal action against ALOMY
# Procedure, shortened: as §1
# Amaranthus retroflexus [9] = experiment: Post-emergence herbicidal action against AMARE; details: visual assessment about 3 weeks after treatment
# Procedure, shortened: as §1
# Alopecurus myosuroides [10] = experiment: Pre-emergence herbicidal action against ALOMY; details: visual score after 3 weeks vs untreated controls
# Procedure, shortened: as §2
# Viola tricolor [11] = experiment: Post-emergence herbicidal action against VIOTR
# Procedure, shortened: as §1
# Avena fatua [12] = experiment: Pre-emergence herbicidal action against AVEFA; details: visual score after 3 weeks vs untreated controls
# Procedure, shortened: as §2
# Abutilon theophrasti [13] = experiment: Post-emergence herbicidal action against ABUTH
# Procedure, shortened: as §1
# Viola tricolor [14] = experiment: Pre-emergence herbicidal action against VIOTR
# Procedure, shortened: as §2
# Amaranthus retroflexus [15] = experiment: Pre-emergence herbicidal action against AMARE; details: visual score after 3 weeks vs untreated controls
# Procedure, shortened: as §2
# Veronica persica [16] = experiment: Pre-emergence herbicidal action against VERPE; details: 320 g/ha
# Procedure, shortened: as §2
# Stellaria media [17] = experiment: Post-emergence herbicidal action against STEME; details: visual assessment about 3 weeks after treatment
# Procedure, shortened: as §1
# Setaria viridis [18] = experiment: Pre-emergence herbicidal action against SETVI
# Procedure, shortened: as §2
# Hordeum murinum [19] = experiment: Pre-emergence herbicidal action against HORMU; details: visual score after 3 weeks vs untreated controls
# Procedure, shortened: as §2
# Polygonum convolvulus [20] = experiment: Post-emergence herbicidal action against POLCO; details: 80 g/ha, visual assessment about 3 weeks after treatment
# Procedure, shortened: as §1
# Matricaria inodora [21] = experiment: Post-emergence herbicidal action against MATIN; details: visual assessment about 3 weeks after treatment
# Procedure, shortened: as §1
# Cyperus esculentus [22] = experiment: Pre-emergence herbicidal action against CYPES; details: visual score after 3 weeks vs untreated controls
# Procedure, shortened: as §2
# Avena fatua [23] = experiment: Post-emergence herbicidal action against AVEFA; details: visual assessment about 3 weeks after treatment
# Procedure, shortened: as §1
# Abutilon theophrasti [24] = experiment: Pre-emergence herbicidal action against ABUTH; details: visual score after 3 weeks vs untreated controls
# Procedure, shortened: as §2
# Stellaria media [25] = experiment: Pre-emergence herbicidal action against STEME
# Procedure, shortened: as §2
# Echinochloa crus-galli [26] = experiment: Pre-emergence herbicidal action against ECHCG; details: visual score after 3 weeks vs untreated controls
# Procedure, shortened: as §2
# Echinochloa crus-galli [27] = experiment: Post-emergence herbicidal action against ECHCG; details: visual assessment about 3 weeks after treatment
# Procedure, shortened: as §1
# Pharbitis purpurea [28] = experiment: Pre-emergence herbicidal action against PHBPU; details: visual score after 3 weeks vs untreated controls
# Procedure, shortened: as §2
# Veronica persica [29] = experiment: Post-emergence herbicidal action against VERPE; details: 80 g/ha, visual assessment about 3 weeks after treatment
# Procedure, shortened: as §1
# Lolium rigidum [30] = experiment: Pre-emergence herbicidal action against LOLRI; details: 320 g/ha
# Procedure, shortened: as §2
compound,measurement,setting,value
CCN(C)C(=O)c1c(C(F)(F)F)ccc(C(=O)Nc2nnnn2CC)c1Cl [Example 2-124],Post-emergence action against CYPES in %,Cyperus esculentus [1],90%
same,Post-emergence action against PHBPU in %,Pharbitis purpurea [2]; 5 g/ha,80%
same,Post-emergence action against PHBPU in %,Pharbitis purpurea [2]; 20 g/ha,90%
same,Post-emergence action against PHBPU in %,Pharbitis purpurea [2]; 80 g/ha,90%
same,Post-emergence action against LOLRI in %,Lolium rigidum [3]; 20 g/ha,90%
same,Post-emergence action against LOLRI in %,Lolium rigidum [3]; 80 g/ha,100%
same,Pre-emergence action against MATIN,Matricaria inodora [4]; 20 g/ha,80%
same,Pre-emergence action against MATIN,Matricaria inodora [4]; 80 g/ha,90%
same,Pre-emergence action against MATIN,Matricaria inodora [4]; 320 g/ha,100%
same,Post-emergence action against SETVI in %,Setaria viridis [5]; 5 g/ha,100%
same,Post-emergence action against SETVI in %,Setaria viridis [5]; 20 g/ha,100%
same,Post-emergence action against SETVI in %,Setaria viridis [5]; 80 g/ha,100%
same,Pre-emergence action against POLCO,Polygonum convolvulus [6],80%
same,Post-emergence action against HORMU in %,Hordeum murinum [7]; 20 g/ha,90%
same,Post-emergence action against HORMU in %,Hordeum murinum [7]; 80 g/ha,100%
same,Post-emergence action against ALOMY,Alopecurus myosuroides [8]; 5 g/ha,90%
same,Post-emergence action against ALOMY,Alopecurus myosuroides [8]; 20 g/ha,100%
same,Post-emergence action against ALOMY,Alopecurus myosuroides [8]; 80 g/ha,100%
same,Post-emergence action against AMARE in %,Amaranthus retroflexus [9]; 5 g/ha,100%
same,Post-emergence action against AMARE in %,Amaranthus retroflexus [9]; 20 g/ha,100%
same,Post-emergence action against AMARE in %,Amaranthus retroflexus [9]; 80 g/ha,100%
same,Pre-emergence action against ALOMY,Alopecurus myosuroides [10]; 80 g/ha,80%
same,Pre-emergence action against ALOMY,Alopecurus myosuroides [10]; 320 g/ha,90%
same,Post-emergence action against VIOTR in %,Viola tricolor [11]; 5 g/ha,100%
same,Post-emergence action against VIOTR in %,Viola tricolor [11]; 20 g/ha,100%
same,Post-emergence action against VIOTR in %,Viola tricolor [11]; 80 g/ha,100%
same,Pre-emergence action against AVEFA,Avena fatua [12]; 80 g/ha,90%
same,Pre-emergence action against AVEFA,Avena fatua [12]; 320 g/ha,100%
same,Post-emergence action against ABUTH,Abutilon theophrasti [13]; 5 g/ha,100%
same,Post-emergence action against ABUTH,Abutilon theophrasti [13]; 20 g/ha,100%
same,Post-emergence action against ABUTH,Abutilon theophrasti [13]; 80 g/ha,100%
same,Pre-emergence action against VIOTR,Viola tricolor [14]; 20 g/ha,80%
same,Pre-emergence action against VIOTR,Viola tricolor [14]; 80 g/ha,80%
same,Pre-emergence action against VIOTR,Viola tricolor [14]; 320 g/ha,100%
same,Pre-emergence action against AMARE,Amaranthus retroflexus [15]; 20 g/ha,90%
same,Pre-emergence action against AMARE,Amaranthus retroflexus [15]; 80 g/ha,100%
same,Pre-emergence action against AMARE,Amaranthus retroflexus [15]; 320 g/ha,100%
same,Pre-emergence action against VERPE,Veronica persica [16],100%
same,Post-emergence action against STEME in %,Stellaria media [17]; 5 g/ha,100%
same,Post-emergence action against STEME in %,Stellaria media [17]; 20 g/ha,100%
same,Post-emergence action against STEME in %,Stellaria media [17]; 80 g/ha,100%
same,Pre-emergence action against SETVI,Setaria viridis [18]; 20 g/ha,90%
same,Pre-emergence action against SETVI,Setaria viridis [18]; 80 g/ha,100%
same,Pre-emergence action against SETVI,Setaria viridis [18]; 320 g/ha,100%
same,Pre-emergence action against HORMU,Hordeum murinum [19]; 80 g/ha,80%
same,Pre-emergence action against HORMU,Hordeum murinum [19]; 320 g/ha,90%
same,Post-emergence action against POLCO in %,Polygonum convolvulus [20],100%
same,Post-emergence action against MATIN in %,Matricaria inodora [21]; 5 g/ha,90%
same,Post-emergence action against MATIN in %,Matricaria inodora [21]; 20 g/ha,100%
same,Post-emergence action against MATIN in %,Matricaria inodora [21]; 80 g/ha,100%
same,Pre-emergence action against CYPES,Cyperus esculentus [22]; 20 g/ha,100%
same,Pre-emergence action against CYPES,Cyperus esculentus [22]; 80 g/ha,100%
same,Pre-emergence action against CYPES,Cyperus esculentus [22]; 320 g/ha,100%
same,Post-emergence action against AVEFA in %,Avena fatua [23]; 5 g/ha,80%
same,Post-emergence action against AVEFA in %,Avena fatua [23]; 20 g/ha,100%
same,Post-emergence action against AVEFA in %,Avena fatua [23]; 80 g/ha,100%
same,Pre-emergence action against ABUTH,Abutilon theophrasti [24]; 20 g/ha,100%
same,Pre-emergence action against ABUTH,Abutilon theophrasti [24]; 80 g/ha,100%
same,Pre-emergence action against ABUTH,Abutilon theophrasti [24]; Dosage column 320 g/ha (heading prints 3200 g/ha),100%
same,Pre-emergence action against STEME,Stellaria media [25]; 20 g/ha,90%
same,Pre-emergence action against STEME,Stellaria media [25]; 80 g/ha,90%
same,Pre-emergence action against STEME,Stellaria media [25]; 320 g/ha,90%
same,Pre-emergence action against ECHCG,Echinochloa crus-galli [26]; 80 g/ha,90%
same,Pre-emergence action against ECHCG,Echinochloa crus-galli [26]; 320 g/ha,100%
same,Post-emergence action against ECHCG in %,Echinochloa crus-galli [27]; 20 g/ha,100%
same,Post-emergence action against ECHCG in %,Echinochloa crus-galli [27]; 80 g/ha,100%
same,Pre-emergence action against PHBPU,Pharbitis purpurea [28]; 80 g/ha,80%
same,Pre-emergence action against PHBPU,Pharbitis purpurea [28]; 320 g/ha,90%
same,Post-emergence action against VERPE in %,Veronica persica [29],100%
same,Pre-emergence action against LOLRI,Lolium rigidum [30],90%
